Assay results reported in the supplement of paper PMC11281043.
± gives the standard deviation of the averaged measurements.

Tests used:
Danio rerio embryo/larva [1] = assay: BMC general abnormality; higher = less potent; details: exposure: 6-8 hpf to 5 dpf, scored at 6 dpf
Experimental: (§1)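 Zebrafish embryos (with chorion) were exposed from 6-8 hpf to each PFAS (8-point half-log series, top concentration up to 100 uM, 0.4% DMSO, sealed plates, 26 C; n = 6 embryos per concentration), rinsed at 5 dpf and scored at 6 dpf by two blinded observers for mortality, hatching and malformations. Endpoint scores are the % of living larvae affected (dead larvae excluded; […]). Curves were fitted with tcpl (cutoff 16%), and the BMC is the concentration at a benchmark response of 21.6%.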

Danio rerio embryo/larva [2] = assay: max % larvae with pigmentation defects across tested concentrations; higher = more toxic; details: exposure: 6-8 hpf to 5 dpf, scored at 6 dpf
Danio rerio embryo/larva [3] = assay: max % larvae with edema across tested concentrations; higher = more toxic; extreme values may be limits of the assay; details: exposure: 6-8 hpf to 5 dpf, scored at 6 dpf
Danio rerio embryo/larva [4] = assay: max % larvae with tail defects across tested concentrations; higher = more toxic; extreme values may be limits of the assay; details: exposure: 6-8 hpf to 5 dpf, scored at 6 dpf
Danio rerio embryo/larva [5] = assay: max % larvae with blood pooling across tested concentrations; higher = more toxic; extreme values may be limits of the assay; details: exposure: 6-8 hpf to 5 dpf, scored at 6 dpf
Danio rerio embryo/larva [6] = assay: max % larvae generally abnormal across tested concentrations; higher = more toxic; extreme values may be limits of the assay; details: exposure: 6-8 hpf to 5 dpf, scored at 6 dpf
Danio rerio embryo/larva [7] = assay: max % larvae with spinal defects across tested concentrations; higher = more toxic; extreme values may be limits of the assay; details: exposure: 6-8 hpf to 5 dpf, scored at 6 dpf
Danio rerio embryo/larva [8] = assay: max % larvae with abnormal position across tested concentrations; higher = more toxic; extreme values may be limits of the assay; details: exposure: 6-8 hpf to 5 dpf, scored at 6 dpf
Danio rerio embryo/larva [9] = assay: max % larvae with craniofacial defects across tested concentrations; higher = more toxic; extreme values may be limits of the assay; details: exposure: 6-8 hpf to 5 dpf, scored at 6 dpf
Danio rerio embryo/larva [10] = assay: max % larvae with uninflated swim bladder across tested concentrations; higher = more toxic; extreme values may be limits of the assay; details: exposure: 6-8 hpf to 5 dpf, scored at 6 dpf
Danio rerio embryo/larva [11] = assay: BMC edema; higher = less potent; details: max tested concentration (log10 uM): 2; exposure: 6-8 hpf to 5 dpf, scored at 6 dpf
Experimental: as §1

Danio rerio embryo/larva [12] = assay: BMC swim bladder non-inflation; higher = less potent; details: max tested concentration (log10 uM): 2; exposure: 6-8 hpf to 5 dpf, scored at 6 dpf
Experimental: as §1

Danio rerio embryo/larva [13] = assay: BMC any abnormality; max tested concentration (log10 uM): 2; higher = less potent; details: exposure: 6-8 hpf to 5 dpf, scored at 6 dpf
Experimental: as §1

Danio rerio embryo/larva [14] = assay: max % larvae unhatched across tested concentrations; max tested concentration (log10 uM): 2; higher = more toxic; details: exposure: 6-8 hpf to 5 dpf, scored at 6 dpf
Danio rerio embryo/larva [15] = assay: max % larvae dead across tested concentrations; max tested concentration (log10 uM): 2; higher = more toxic; extreme values may be limits of the assay; details: exposure: 6-8 hpf to 5 dpf, scored at 6 dpf
Danio rerio embryo/larva [16] = assay: max % larvae with any abnormality across tested concentrations; max tested concentration (log10 uM): 2; higher = more toxic; extreme values may be limits of the assay; details: exposure: 6-8 hpf to 5 dpf, scored at 6 dpf

Compound | BMC general abnormality (Danio rerio embryo/larva [1]) [µM] | max % larvae (Danio rerio embryo/larva [2]) [%] | max % larvae (Danio rerio embryo/larva [3]) [%] | max % larvae (Danio rerio embryo/larva [4]) [%] | max % larvae (Danio rerio embryo/larva [5]) [%] | max % larvae generally abnormal across tested concentrations (Danio rerio embryo/larva [6]) [%] | max % larvae (Danio rerio embryo/larva [7]) [%] | max % larvae (Danio rerio embryo/larva [8]) [%] | max % larvae (Danio rerio embryo/larva [9]) [%] | max % larvae (Danio rerio embryo/larva [10]) [%] | BMC edema (Danio rerio embryo/larva [11]) [µM] | BMC swim bladder non-inflation (Danio rerio embryo/larva [12]) [µM] | BMC any abnormality (Danio rerio embryo/larva [13]) [µM] | max % larvae unhatched across tested concentrations (Danio rerio embryo/larva [14]) [%] | max % larvae dead across tested concentrations (Danio rerio embryo/larva [15]) [%] | max % larvae (Danio rerio embryo/larva [16]) [%]
OCCCC(F)(F)C(F)(F)C(F)(F)C(F)(F)C(F)(F)C(F)(F)C(F)(F)F [7:3 Fluorotelomer alcohol] (max tested concentration (log10 uM): 2) | 44.8 | 0 | 19.4 | 0 | 16.7 | 22.2 | 0 | 0 | 11.1 | 22.2 |  |  |  |  |  | 
O=C(O)CCC(F)(F)C(F)(F)C(F)(F)C(F)(F)C(F)(F)C(F)(F)F [3-(Perfluorohexyl)propanoic acid] (max tested concentration (log10 uM): 1) | 9.01 | 0 | 25 | 12.5 | 0 | 25 | 0 | 4.17 | 16.7 | 16.7 |  |  |  |  |  | 
FC(F)(I)C(F)(F)C(F)(F)C(F)(F)C(F)(F)C(F)(F)I [1,6-Diiodoperfluorohexane] (max tested concentration (log10 uM): 2) | 4.24 ± 2.6 | 10 ± 14 | 67.5 ± 3.5 | 7.5 ± 11 | 56.7 ± 33 | 95 ± 7.1 | 33.3 ± 18 | 54.6 ± 0.59 | 90 | 100 |  |  |  |  |  | 
O=S(=O)(O)C(F)(F)C(F)(F)C(F)(F)C(F)(F)C(F)(F)C(F)(F)C(F)(F)C(F)(F)F [Perfluorooctanesulfonic acid] (max tested concentration (log10 uM): 1) | 7.82 | 0 | 43.8 | 18.8 | 0 | 75 | 6.25 | 25 | 50 | 62.5 |  |  |  |  |  | 
FC(F)C(F)(F)COCC1CO1 (stereo not given) [((2,2,3,3-Tetrafluoropropoxy)methyl)oxirane] |  |  |  |  |  |  |  |  |  |  | 32.6 | 27.7 | 26.5 | 0 | 0 | 91.7
NS(=O)(=O)C(F)(F)C(F)(F)C(F)(F)C(F)(F)C(F)(F)C(F)(F)F [Perfluorohexanesulfonamide] (max tested concentration (log10 uM): 0.477121) | 1.66 | 0 | 85 | 10 | 0 | 85 | 5 | 30 | 70 | 100 |  |  |  |  |  | 
O=C(O)C(F)(F)C(F)(F)C(F)(F)C(F)(F)C(F)(F)C(F)(F)C(F)(F)C(F)(F)F [Perfluorononanoic acid] (max tested concentration (log10 uM): 2) | 28 | 0 | 75 | 50 | 16.7 | 75 | 25 | 37.5 | 100 | 100 |  |  |  |  |  | 
CC(C)(C)C(=O)CC(=O)C(F)(F)C(F)(F)C(F)(F)F [(Heptafluorobutanoyl)pivaloylmethane] (max tested concentration (log10 uM): 2) | 25.6 | 0 | 66.7 | 0 | 20 | 66.7 | 0 | 25 | 83.3 | 100 |  |  |  |  |  | 
O=C(O)C(F)(F)OC(F)(F)C(F)(F)OC(F)(F)C(F)(F)OC(F)(F)C(F)(F)C(F)(F)C(F)(F)F [Perfluoro-3,6,9-trioxatridecanoic acid] (max tested concentration (log10 uM): 1) | 1.51 | 0 | 50 | 0 | 16.7 | 50 | 0 | 50 | 0 | 100 |  |  |  |  |  | 
O=C(O)C(F)(F)C(F)(F)C(F)(F)C(F)(F)C(F)(F)C(F)(F)C(F)(F)C(F)(F)C(F)(F)F [Perfluorodecanoic acid] (max tested concentration (log10 uM): 1.47712) | 11.2 | 0 | 50 | 0 | 0 | 50 | 0 | 0 | 0 | 100 |  |  |  |  |  | 
O=C(O)CCC(F)(F)C(F)(F)C(F)(F)C(F)(F)C(F)(F)F [2H,2H,3H,3H-Perfluorooctanoic acid] (max tested concentration (log10 uM): 1.47712) | 9.38 | 0 | 100 | 25 | 100 | 100 | 12.5 | 25 | 100 | 100 |  |  |  |  |  | 
FC(F)(F)C(F)(F)C(F)(F)C(F)(F)C(F)(F)CCI [1-Iodo-1H,1H,2H,2H-perfluoroheptane] (max tested concentration (log10 uM): 2) | 31.4 | 0 | 35.7 | 7.14 | 0 | 42.9 | 4.17 | 10.7 | 14.3 | 35.7 |  |  |  |  |  | 
O=C(O)C(F)(F)C(F)(F)C(F)(F)C(F)(F)C(F)(F)C(F)(F)C(F)(F)C(F)(F)C(F)(F)C(F)F [11-H-Perfluoroundecanoic acid] (max tested concentration (log10 uM): 1.47712) | 12.6 | 0 | 100 | 100 | 100 | 100 | 0 | 50 | 100 | 100 |  |  |  |  |  | 
OC(C(F)(F)F)(C(F)(F)F)C(O)(C(F)(F)F)C(F)(F)F [Perfluoropinacol] (max tested concentration (log10 uM): 0.477121) | 2.52 | 0 | 50 | 0 | 0 | 50 | 0 | 0 | 50 | 100 |  |  |  |  |  | 
OCC(F)(F)C(F)(F)C(F)(F)C(F)(F)C(F)(F)C(F)(F)C(F)(F)C(F)(F)CO [1H,1H,10H,10H-Perfluorodecane-1,10-diol] (max tested concentration (log10 uM): 1) | 3.79 | 0 | 66.7 | 8.33 | 33.3 | 75 | 4.17 | 4.17 | 83.3 | 83.3 |  |  |  |  |  | 
FC(F)(I)C(F)(F)C(F)(F)C(F)(F)I [Perfluoro-1,4-diiodobutane] (max tested concentration (log10 uM): 2) | 20.6 | 0 | 58.3 | 20.8 | 20 | 58.3 | 16.7 | 16.7 | 50 | 66.7 |  |  |  |  |  | 
NCC(F)(F)C(F)(F)C(F)(F)C(F)(F)C(F)(F)C(F)(F)F [1H,1H-Perfluoroheptylamine] (max tested concentration (log10 uM): 2) | 79.2 | 0 | 33.3 | 0 | 0 | 33.3 | 0 |  | 0 | 0 |  |  |  |  |  | 
O=C(Cl)C(F)(F)C(F)(F)C(F)(F)C(F)(F)C(F)(F)C(F)(F)C(F)(F)C(F)(F)F [Perfluorononanoyl chloride] (max tested concentration (log10 uM): 1.47712) | 13.1 | 0 | 16.7 | 0 | 16.7 | 29.2 | 0 | 4.17 | 0 | 50 |  |  |  |  |  | 
O=C(O)C(F)(F)C(F)(F)C(F)(F)C(F)(F)C(F)(F)C(F)(F)C(F)(F)C(F)(F)C(F)(F)C(F)(F)F [Perfluoroundecanoic acid] (max tested concentration (log10 uM): 0.477121) | 2.74 | 0 | 25 | 12.5 | 8.33 | 25 | 8.33 | 8.33 | 16.7 | 16.7 |  |  |  |  |  | 
OCC(F)(F)C(F)(F)C(F)(F)C(F)(F)C(F)(F)C(F)(F)CO [1H,1H,8H,8H-Perfluorooctane-1,8-diol] (max tested concentration (log10 uM): 2) | 50.1 | 0 | 50 | 2.08 | 0 | 52.1 | 8.33 | 8.33 | 25 | 87.5 |  |  |  |  |  | 
NS(=O)(=O)C(F)(F)C(F)(F)C(F)(F)C(F)(F)C(F)(F)C(F)(F)C(F)(F)C(F)(F)F [Perfluorooctanesulfonamide] (max tested concentration (log10 uM): 0) | 0.381 | 0 | 37.5 | 0 | 16.7 | 41.7 | 0 | 8.33 | 8.33 | 50 |  |  |  |  |  | 
CCNS(=O)(=O)C(F)(F)C(F)(F)C(F)(F)C(F)(F)C(F)(F)C(F)(F)C(F)(F)C(F)(F)F [N-Ethylperfluorooctane sulfonamide] (max tested concentration (log10 uM): 1) | 2.91 | 0 | 41.7 | 0 | 16.7 | 58.3 | 0 | 8.33 | 8.33 | 83.3 |  |  |  |  |  | 
O=C(O)C(F)(F)C(F)(F)C(F)(F)C(F)(F)C(F)(F)C(F)(F)C(F)(F)C(F)(F)Cl [9-Chloro-perfluorononanoic acid] (max tested concentration (log10 uM): 2) | 9.23 | 0 | 100 | 75 | 41.7 | 100 | 50 | 25 | 100 | 100 |  |  |  |  |  | 
C=CC(=O)OCC(F)(F)C(F)(F)C(F)(F)C(F)(F)COC(=O)C=C [1H,1H,6H,6H-Perfluorohexane-1,6-diol diacrylate] (max tested concentration (log10 uM): 1) | 7.57 | 0 | 25 | 0 | 0 | 25 | 0 | 4.17 | 8.33 | 50 |  |  |  |  |  | 
C=CC(=O)OCCC(F)(F)C(F)(F)C(F)(F)C(F)(F)F [2-(Perfluorobutyl)ethyl acrylate] (max tested concentration (log10 uM): 2) | 74.8 | 0 | 0 | 0 | 0 | 50 | 0 | 0 | 0 | 100 |  |  |  |  |  | 
